Laboratory results from PubChem BioAssay AID2305 (GlaxoSmithKline (GSK), 2010).

Tested on: P. falciparum 3D7 growth, pLDH absorbance
Test: blood-stage malaria parasite growth potency – strain 3D7, dose response (AID 2305)

Row | SMILES | IC50
1 | CN(C)Cc1cccc(-c2ccc(Nc3nccc(NCC(O)c4ccccc4)n3)cc2)c1 (stereo unspecified) | 140 nM
2 | COc1ccc2c(c1)OC(C)(C)CC2=NOS(=O)(=O)c1ccc(C)cc1 | 210 nM
3 | Cn1c(=N)n(CC(=O)OCc2ccc(OCc3ccccc3)cc2)c2ccccc21 | 80 nM
4 | Cc1cc(N[C@@H](Cc2ccccc2)C(=O)NCc2cccc(F)c2)nc(Nc2ccccc2)n1 | 930 nM
5 | COc1cc(CN2CCC(N3CCc4cc(NC(=O)c5cc(C)on5)ccc43)C2)ccc1F (stereo unspecified) | 610 nM
6 | CNCc1ccc(CN(C)c2nc(N)c3cc(OC)c(OC)cc3n2)cc1 | 1030 nM
7 | Cc1cc2nc(-c3ccc(OCC(=O)NCc4ccc(C(C)(C)C)cc4)cc3)[nH]c2cc1C | 1060 nM
8 | COc1ccc(CC(=O)Nc2ccc(-c3cccc(-c4nc5c(C)cccc5[nH]4)c3)cc2)cc1O | 450 nM
9 | CCn1c(-c2nonc2N)nc2c(-c3cccc(NC(=O)Nc4ccc5c(c4)CCC5)c3)ncc(OCCCN)c21 | 780 nM
10 | O=C(NC1CCN(Cc2ccccc2)C1)c1ccc(Nc2ccc(Br)cc2)nc1 (stereo unspecified) | 1080 nM
11 | CS(=O)(=O)Cc1ccc(Nc2ncc(Cl)c(Nc3cccnc3C(N)=O)n2)cc1 | 870 nM
12 | COc1cc(-c2ccc3c(-c4ccc(C(=O)N5CCN(C)CC5)cc4)[nH]nc3n2)cc(OC)c1OC | 1330 nM
13 | O=C(CC(c1ccccc1)c1ccccc1O)N1CCOCC1 (stereo unspecified) | 1520 nM
14 | COc1cc(Cc2cnc(N)nc2N)cc(OCCCCc2ccc([N+](=O)[O-])cc2)c1OC | 990 nM
15 | Cc1ccc(Cn2cnc3cc(C(=O)Nc4ccc(-c5cccc(CN(C)C)c5)cc4)ccc3c2=O)o1 | 630 nM
16 | CN1CCC(C(=O)Nc2ccc(-c3ccc(-c4nc5ccc(C(F)(F)F)cc5[nH]4)s3)cc2)CC1 | 990 nM
17 | CN(C(=O)OCc1ccccc1)C1CCC(CCN2CCC3(CC2)C(=O)NCN3c2cccc(C(F)(F)F)c2)(c2ccccc2)CC1 (stereo unspecified) | 1180 nM
18 | CCOC(=O)c1ccc(NC(=O)Nc2cccc(-c3ccc(-c4nc5ccccc5[nH]4)cc3)c2)cc1 | 210 nM
19 | CC1CN(Cc2cccc(F)c2)CCN1c1ccc(NC(=O)c2ccc(F)cc2)cc1 (stereo unspecified) | 580 nM
20 | COc1cc2c(c(Cl)c1OC)CCN(C(=O)C(F)(F)F)CC2c1ccccc1 (stereo unspecified) | 440 nM
21 | COc1cccc(C(=O)Nc2ccc(Oc3ccc(Cl)cc3)cc2)c1 | 960 nM
22 | O=c1ccc2ccc(F)c3c2n1CC3CN1CCC(NCc2cccc(-c3ccccc3F)c2)CC1 (stereo unspecified) | 1100 nM
23 | CSc1cccc(NC(=O)c2cc3ccccc3oc2=O)c1 | 830 nM
24 | O=C(Nc1ccc(C(F)(F)F)cc1)Nc1ccccc1N1CCNCC1 | 500 nM

Row | SMILES | IC50
25 | Cc1cc(N[C@@H](Cc2ccccc2)C(=O)NC2CCCC2)nc(NCC2CCCCC2)n1 | 1170 nM
26 | Nc1nonc1-c1nc2c(-c3cccc(Cl)c3)nccc2n1CCCNC(=O)Cc1ccc(Cl)cc1 | 270 nM
27 | CC1(C)CNCc2cc(NC(=O)/C=C/c3ccc(Cl)cc3)ccc21 | 1180 nM
28 | CC(C)Oc1ccc2c(c1)OC(c1ccccc1)(C(F)(F)F)NC2=O (stereo unspecified) | 140 nM
29 | CC(Cc1ccc(OCCN2CCN(c3ccccc3)CC2)cc1)NCC(O)c1cccc(Cl)c1F (stereo unspecified) | 870 nM
30 | Cc1nc(C)c(CC(=O)Nc2ccc(-c3ccc(-c4nc5ccc(C(F)(F)F)cc5[nH]4)s3)cc2)s1 | 1030 nM
31 | COc1ccc2nccc([C@@H](O)CN3CCC(NC(=O)/C=C/c4ccc(Cl)c(C(F)(F)F)c4)CC3)c2c1 | 290 nM
32 | Cc1ccc(Cl)cc1NC(=O)c1c(-c2ccccc2Cl)noc1C | 190 nM
33 | CC1CCN(c2nc(C(=O)Nc3ccc(F)cc3C(F)(F)F)c(C(C)C)s2)CC1 | 230 nM
34 | Cc1cc(C)c2oc(-c3cccc(NC(=O)c4ccc([N+](=O)[O-])o4)c3C)nc2c1 | 1150 nM
35 | COc1cccc(Nc2nc(C)cc(NCc3ccc(-n4ccnc4)cc3)n2)c1 | 960 nM
36 | Cc1cccc(S(=O)(=O)Nc2cccc(CCN3CCC(N4CCCCC4)CC3)c2)c1 | 1330 nM
37 | O=C(N[C@@H](Cc1cc(F)cc(F)c1)[C@H](O)CNCc1cccc(C(F)(F)F)c1)c1cc(C2CCCC2)cc(N2CCCC2=O)c1 | 800 nM
38 | O=C(/C=C/c1ccc(Cl)cc1)NCCCCCN1CCC(C(=O)Nc2cccc(Cl)c2)CC1 | 850 nM
39 | Oc1ccc2nc(N3CCNCC3)nc(NCCCc3ccccc3)c2c1 | 1370 nM
40 | CCOC(=O)c1ccc(NC(=O)NNC(=O)c2ccc(CCN3CCC(c4nc(COCC(F)(F)F)c(-c5ccc(F)cc5)o4)CC3)cc2)cc1 | 570 nM
41 | CC(CN1CCN(C)CC1)C(=O)Nc1ccc(-c2cccc(-c3nc4ccc(C(F)(F)F)cc4[nH]3)c2)cc1 (stereo unspecified) | 400 nM
42 | c1ccc(Oc2ccc(Nc3ccnc4cc(-c5ccc(CN6CCOCC6)o5)ccc34)cc2)nc1 | 910 nM
43 | CC(C)NCc1ccc(-c2ccc(NC(=O)c3cccc(C#N)c3)cc2)cc1 | 650 nM
44 | Nc1nc(N)c2cc(CNc3ccc(Cl)c(Cl)c3)ccc2n1 | 1020 nM
45 | COc1cc2nc(Nc3ccc4c(cnn4Cc4ccccc4)c3)nc(Nc3ccc4c(cnn4Cc4ccccc4)c3)c2cc1OC | 190 nM
46 | COc1ccc(NC(=O)Nc2cc(C)nc3cccnc23)cc1Cn1ccnc1 | 740 nM
47 | O=C(/C=C/c1ccc(Cl)c(Cl)c1)N1CCC(CCN2CCC(c3c[nH]c4cc5c(cc34)OCO5)CC2)CC1 | 730 nM
48 | CC(CN1CCN(C)CC1)C(=O)Nc1ccc(-c2cccc(-c3nc4ccccc4[nH]3)c2)cc1 (stereo unspecified) | 570 nM

Row | SMILES | IC50
49 | CCN(CCNC(=O)Nc1cc(C(F)(F)F)cc(C(F)(F)F)c1)c1cccc(C)c1 | 800 nM
50 | Nc1c(C(=O)NCCCCN2CCN(c3nsc4ccccc34)CC2)sc2ccccc12 | 1320 nM
51 | CN(C)C(=S)NN=Cc1cccc(O)c1O | 870 nM
52 | c1ccc(OCCOc2ccc(Nc3ccnc4cc5ccccc5cc34)cc2)cc1 | 250 nM
53 | O=S(=O)(NCCN1CCCC1)c1ccc(-c2cccc(CNCc3ccc(F)cc3)c2)cc1F | 790 nM
54 | COc1ccc(NC(=O)Nc2ccc(Nc3nc(C)cc(N(C)C)n3)cc2)cc1 | 450 nM
55 | COc1ccc(Nc2nccc(-c3ccc4ccnc(NCCCCN)c4c3)n2)cc1 | 750 nM
56 | CC(C)NCC(O)COc1ccc(Cc2ccc(OCC(O)CNC(C)C)cc2)cc1 (stereo unspecified) | 650 nM
57 | COc1cccc(CNc2noc(-c3c(-c4ccccc4)noc3C)n2)c1OC | 870 nM
58 | COCC(C)n1c(SCC(=O)Nc2cc(C(F)(F)F)ccc2Cl)nc2ccccc2c1=O (stereo unspecified) | 130 nM
59 | O=C(c1cc(C(=O)NCc2ccc(Cl)cc2)c(=O)n(Cc2ccc(Cl)cc2)c1)c1cc(Cl)ccc1O | 1400 nM
60 | COc1ccc(CN(C)CCCc2ccc(NC(=O)Cc3ccc4nc(-c5ccccc5)ccc4c3)cc2)cc1OC | 530 nM
61 | Cc1ccc(C(=O)Nc2ccc(Cl)c(N3CCN(CCc4ccccc4)CC3)c2)cc1 | 930 nM
62 | Fc1cc(Cl)ccc1Nc1ccnc2cc(-c3scnc3CNCCN3CCOCC3)ccc12 | 850 nM
63 | Cc1cc(=O)c(-c2cccc(Oc3ccc(Cl)cc3)c2)c(C)[nH]1 | 740 nM
64 | Cc1nc2nc(N)nc(N)c2c(C)c1Cc1ccccc1Cl | 110 nM
65 | Cc1c(F)cc(C(=O)NC2CC2)cc1-c1ccc2c(cnn2S(=O)(=O)c2ccc(Cl)s2)c1 | 390 nM
66 | O=C(Nc1ccccc1)Nc1ccc(-c2cccc(-c3nc4ccc(C(F)(F)F)cc4[nH]3)c2)cc1 | 730 nM
67 | Clc1ccc2c(NCc3ccc4c(c3)OCO4)ccnc2c1 | 270 nM
68 | CCOc1cc(Cc2cnc(N)nc2N)cc(OCC)c1O | 1170 nM
69 | O=[N+]([O-])c1ccccc1C=NNc1ccnc2ccc(C(F)(F)F)cc12 | 710 nM
70 | CCn1c(-c2nonc2N)nc2cnc(Oc3cccc(NC(=O)c4ccc(OCCCN5CCCCC5)cc4)c3)cc21 | 930 nM
71 | CCCc1cc(NC2CCN(C)CC2)nc(Nc2ccc(C)cc2)n1 | 900 nM
